Target: T1, RECQL4 (Homo sapiens, UniProt O94761)
T1 construct: RECQL4^449–1111 (lacking the N-terminus)
T1 sequence (O94761 449-1111): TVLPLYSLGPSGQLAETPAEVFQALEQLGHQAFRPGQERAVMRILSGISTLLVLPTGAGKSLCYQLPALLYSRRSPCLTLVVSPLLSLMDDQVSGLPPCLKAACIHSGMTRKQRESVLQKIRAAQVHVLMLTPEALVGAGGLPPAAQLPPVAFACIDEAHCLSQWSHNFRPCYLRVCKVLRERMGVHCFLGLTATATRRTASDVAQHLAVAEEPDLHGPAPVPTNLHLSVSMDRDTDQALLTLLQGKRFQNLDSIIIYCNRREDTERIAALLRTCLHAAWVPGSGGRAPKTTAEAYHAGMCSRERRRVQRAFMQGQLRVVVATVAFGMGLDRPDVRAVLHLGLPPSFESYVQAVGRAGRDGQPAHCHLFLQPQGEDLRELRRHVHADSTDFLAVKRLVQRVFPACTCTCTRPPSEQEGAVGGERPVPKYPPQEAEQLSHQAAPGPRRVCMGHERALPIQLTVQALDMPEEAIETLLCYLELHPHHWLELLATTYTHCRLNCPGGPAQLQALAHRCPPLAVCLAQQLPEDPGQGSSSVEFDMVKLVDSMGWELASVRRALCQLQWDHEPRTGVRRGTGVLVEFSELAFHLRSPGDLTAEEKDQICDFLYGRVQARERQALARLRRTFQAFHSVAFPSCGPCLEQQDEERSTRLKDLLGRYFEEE
Assay: gel-based helicase unwinding assay with purified protein; confirmed by real-time fluorescence helicase assay; LC-MS/MS adduct at Cys1052 in U2OS cells
Type: biochemical

- IC50: 252 nM
Compound: CCCCCCCC/C(=C\CCCCCCCC(=O)O)[N+](=O)[O-] [OA-NO2]

Reference: publication PMC11975020, “Chemoproteomic analysis reveals RECQL4 as a mediator of nitroalkene-dependent double-strand break repair inhibition in cancer” (Research Square, 2025)
